Experimental data taken from the supplement of paper PMC10307832.

Columns and labels:
Experiment in all cases: relative viability (nuclei count vs DMSO), 5 days (fraction); higher = more cells survive
Dactolisib + Lapatinib = compound: Cn1c(=O)n(-c2ccc(C(C)(C)C#N)cc2)c2c3cc(-c4cnc5ccccc5c4)ccc3ncc21 [Dactolisib] + CS(=O)(=O)CCNCc1ccc(-c2ccc3ncnc(Nc4ccc(OCc5cccc(F)c5)c(Cl)c4)c3c2)o1 [Lapatinib] (partner 2 µM)
In short: (§1)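 Lung cancer cell lines in 1536-well plates were dosed by pin tool the day after seeding, either with one drug alone or with a fixed anchor-drug dose plus five library-drug doses (not always all listed) in √10 steps. After 5 days, cells were fixed and their nuclei stained in one step (final 0.05% Triton X-100, 1% formaldehyde, 1 ug/ml Hoechst), then counted on 4× images. Relative viability is the nuclei count in treated wells divided by that in vehicle wells. Values are medians of duplicate plates.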

Dactolisib + AZD7762 = compound: Cn1c(=O)n(-c2ccc(C(C)(C)C#N)cc2)c2c3cc(-c4cnc5ccccc5c4)ccc3ncc21 [Dactolisib] + NC(=O)Nc1cc(-c2cccc(F)c2)sc1C(=O)N[C@H]1CCCNC1 [AZD7762] (partner 0.2 µM)
In short: as §1

AZ505 + OSI-027 = compound: C1CCC(CC1)N(CCNCCC2=C3C(=C(C=C2)O)NC(=O)CO3)C(=O)CCNCCC4=CC(=C(C=C4)Cl)Cl [AZ505] + COc1cccc2cc(-c3nc([C@H]4CC[C@H](C(=O)O)CC4)n4ncnc(N)c34)[nH]c12 [OSI-027] (partner 0.5 µM)
In short: as §1

Dactolisib + Luminespib = compound: Cn1c(=O)n(-c2ccc(C(C)(C)C#N)cc2)c2c3cc(-c4cnc5ccccc5c4)ccc3ncc21 [Dactolisib] + CCNC(=O)c1noc(-c2cc(C(C)C)c(O)cc2O)c1-c1ccc(CN2CCOCC2)cc1 [Luminespib] (partner 0.01 µM)
In short: as §1

Cell Line | relative viability (Dactolisib + Lapatinib; first compound 0.002 µM) | relative viability (Dactolisib + Lapatinib; first compound 0.006325 µM) | relative viability (Dactolisib + Lapatinib; first compound 0.02 µM) | relative viability (Dactolisib + Lapatinib; first compound 0.06325 µM) | relative viability (Dactolisib + Lapatinib; first compound 0.2 µM) | relative viability (Dactolisib + AZD7762; first compound 0.002 µM) | relative viability (Dactolisib + AZD7762; first compound 0.006325 µM) | relative viability (Dactolisib + AZD7762; first compound 0.02 µM) | relative viability (Dactolisib + AZD7762; first compound 0.06325 µM) | relative viability (Dactolisib + AZD7762; first compound 0.2 µM) | relative viability (AZ505 + OSI-027; first compound 0.08 µM) | relative viability (AZ505 + OSI-027; first compound 0.253 µM) | relative viability (AZ505 + OSI-027; first compound 0.8 µM) | relative viability (AZ505 + OSI-027; first compound 2.53 µM) | relative viability (AZ505 + OSI-027; first compound 8 µM) | relative viability (Dactolisib + Luminespib; first compound 0.002 µM) | relative viability (Dactolisib + Luminespib; first compound 0.006325 µM) | relative viability (Dactolisib + Luminespib; first compound 0.02 µM) | relative viability (Dactolisib + Luminespib; first compound 0.06325 µM) | relative viability (Dactolisib + Luminespib; first compound 0.2 µM)
LCLC-97TM1 | 0.926 | 0.558 | 0.842 | 0.269 | 0.317 | 0.197 | 0.325 | 0.291 | 0.18 | 0.135 | 0.389 | 0.335 | 0.495 | 0.395 | 0.644 | 0.753 | 0.754 | 0.661 | 0.46 | 0.213
RERF-LC-KJ | 0.901 | 0.823 | 0.829 | 0.53 | 0.418 | 1.02 | 0.922 | 0.818 | 0.572 | 0.489 | 0.471 | 0.575 | 0.552 | 0.574 | 0.492 | 1.3 | 1.29 | 0.859 | 0.326 | 0.415
NCI-H1651 | 0.84 | 0.788 | 0.643 | 0.35 | 0.303 | 0.443 | 0.483 | 0.318 | 0.28 | 0.179 | 0.678 | 0.75 | 0.725 | 0.763 | 0.717 | 1.13 | 0.818 | 0.863 | 0.309 | 0.321
NCI-H2170 | 0.263 | 0.289 | 0.262 | 0.235 | 0.222 | 0.806 | 0.88 | 0.753 | 0.382 | 0.244 | 0.743 | 0.677 | 0.684 | 0.738 | 0.793 | 0.512 | 0.805 | 0.722 | 0.435 | 0.195
LC-2-ad | 1.01 |  | 1.06 | 0.728 | 0.437 | 0.812 | 0.816 | 0.86 | 0.71 | 0.593 | 0.747 | 0.759 | 0.629 | 0.876 | 0.912 | 1.14 | 0.923 | 0.922 | 0.551 | 0.524
NCI-H1437 | 0.797 | 0.835 | 0.807 | 0.517 | 0.234 | 1.07 | 1.18 | 1.12 | 1.05 | 1.1 | 0.864 | 0.963 | 0.911 | 0.823 | 0.872 | 1.15 | 1.18 | 1.21 | 1.14 | 0.59
H3255 | 0.329 | 0.257 | 0.226 | 0.237 | 0.225 | 0.921 | 0.963 | 0.803 | 0.828 | 0.551 | 0.548 | 0.675 | 0.617 | 0.624 | 0.559 | 0.843 | 0.875 | 0.912 | 0.796 | 0.511
NCI-H1792 | 1.05 | 0.943 | 0.859 | 0.792 | 0.293 | 0.748 | 0.448 | 0.569 | 0.0821 | 0.0508 | 0.712 |  | 0.687 | 0.718 | 0.739 | 0.259 | 0.403 | 0.404 | 0.142 | 0.11
NCI-H2087 | 1.21 | 1.16 | 1.23 | 0.855 | 0.563 | 1.24 | 1.35 | 1.67 | 0.707 | 0.597 | 0.403 | 0.368 | 0.595 | 0.518 | 0.728 | 0.281 | 0.164 | 0.146 | 0.128 | 0.121
NCI-H727 | 0.753 | 0.648 | 0.994 | 0.363 | 0.345 |  | 0.519 | 0.468 | 0.47 | 0.45 | 0.388 | 0.576 | 0.517 |  | 0.651 | 0.417 | 0.419 | 0.351 | 0.436 | 0.447
LU99A | 0.94 | 0.828 | 0.516 | 0.336 | 0.257 | 0.305 | 0.247 | 0.263 | 0.166 | 0.127 |  | 0.346 | 0.271 | 0.32 | 0.329 | 0.257 | 0.228 | 0.29 | 0.202 | 0.192
NCI-H647 | 0.912 | 0.799 | 0.646 | 0.184 | 0.169 | 0.36 | 0.337 | 0.276 | 0.159 | 0.111 | 0.615 | 0.698 | 0.488 | 0.619 | 0.693 | 0.153 | 0.149 | 0.109 | 0.0951 | 0.0891
NCI-H1755 | 1.07 | 1.03 | 1.06 | 0.852 | 0.73 | 0.355 | 0.453 | 0.422 | 0.411 | 0.325 | 0.763 | 0.73 | 0.643 | 0.742 | 0.691 | 0.298 | 0.399 | 0.418 | 0.417 | 0.359
NCI-H3122 | 1.07 | 1.02 | 1.03 | 1.08 | 0.795 | 0.971 | 0.892 | 1 | 0.953 | 0.488 | 0.927 | 0.917 | 1.05 | 0.875 | 0.996 | 0.134 | 0.0901 | 0.104 | 0.0762 | 0.085
PC-14 | 0.33 | 0.347 | 0.318 | 0.186 | 0.141 | 0.348 | 0.368 | 0.333 | 0.176 | 0.135 | 0.72 | 0.835 | 0.666 | 0.765 | 0.786 | 0.136 | 0.16 | 0.172 | 0.11 | 0.128
NCI-H2347 | 1.16 | 0.943 | 0.843 | 0.906 | 0.813 | 0.75 | 0.78 | 0.715 | 0.532 | 0.458 | 0.25 |  |  |  | 0.343 | 0.49 | 0.433 | 0.467 | 0.286 | 0.284
NCI-H1793 | 0.631 | 0.409 | 0.325 | 0.195 | 0.242 | 0.44 | 0.361 | 0.38 | 0.246 | 0.11 | 0.245 | 0.228 | 0.344 |  | 0.37 | 0.155 | 0.15 | 0.164 | 0.163 | 0.165
EKVX | 0.242 | 0.189 | 0.212 | 0.164 | 0.129 | 0.693 | 0.73 | 0.659 | 0.589 | 0.303 | 0.674 | 0.714 | 0.684 | 0.645 | 0.717 | 0.808 | 0.743 | 0.736 | 0.453 | 0.247
HOP-62 | 1.28 | 1.04 | 0.891 | 0.756 | 0.667 | 0.513 | 0.403 | 0.657 | 0.261 | 0.198 | 0.708 | 0.838 | 0.801 | 0.895 | 0.826 | 0.983 | 0.812 | 0.888 | 0.543 | 0.561
NCI-H2126 | 0.826 | 0.799 | 0.745 | 0.641 | 0.476 | 0.946 | 0.925 | 0.949 | 0.803 | 0.623 | 0.601 | 0.6 | 0.689 | 0.751 | 0.779 | 0.803 | 0.868 | 0.809 | 0.334 | 0.296
NCI-H358 | 0.443 | 0.439 | 0.379 | 0.304 | 0.267 | 0.474 | 0.545 | 0.559 | 0.445 | 0.188 | 0.715 | 0.769 | 0.652 | 0.556 | 0.767 | 0.399 | 0.289 | 0.273 | 0.203 | 0.111
EPLC-272H | 0.879 | 0.728 | 0.664 | 0.687 | 0.4 | 0.218 | 0.273 | 0.249 | 0.165 | 0.148 |  | 0.251 | 0.22 | 0.263 | 0.283 | 0.691 | 0.262 | 0.264 | 0.203 | 0.23
PC-3 [JPC-3] | 0.486 | 0.492 | 0.44 | 0.456 | 0.361 | 0.841 | 0.788 | 0.685 | 0.666 | 0.353 | 0.671 | 0.798 | 0.712 | 0.707 | 0.797 | 0.759 | 0.639 | 0.683 | 0.472 | 0.48
NCI-H650 | 0.91 | 1 | 0.691 | 0.55 | 0.452 | 1.04 | 1.07 | 0.9 | 0.79 | 0.469 | 0.503 | 0.552 | 0.529 | 0.671 | 0.54 | 0.779 | 0.778 | 0.787 | 0.443 | 0.369
NCI-H838 | 0.983 | 0.717 | 0.463 | 0.249 | 0.224 | 0.845 | 0.908 | 0.843 | 0.709 | 0.633 | 0.402 | 0.438 | 0.402 | 0.34 | 0.398 | 0.285 | 0.377 | 0.317 | 0.174 | 0.159
NCI-H2405 | 1.03 | 1.11 | 1.01 | 0.735 | 0.393 | 0.773 | 0.768 | 0.674 | 0.48 | 0.253 | 0.436 | 0.511 | 0.528 | 0.574 | 0.501 | 0.665 | 0.689 | 0.755 | 0.393 | 0.272
NCI-H1395 | 1 | 0.918 | 0.966 | 0.708 | 0.545 | 0.375 | 0.373 | 0.391 | 0.373 | 0.355 | 0.685 | 0.543 | 0.563 | 0.622 | 0.604 | 0.544 | 0.681 | 0.678 | 0.434 | 0.43
